Tests used:
[1] = LC-MS analysis of rice plants fed with the mimics; assay type: in vivo; conditions: data not shown
Striga hermonthica seeds = assay: Striga hermonthica seed germination bioassay with root exudates of treated rice seedlings; assay type: in vivo
Protocol: For SL analysis, one-week-old seedlings were transferred into 50 ml falcon tubes (two seedlings per tube), containing half-strength Hoagland nutrient solution with K2HPO4.2H2O (+Pi), and grown in the biochamber for one week. Rice seedlings were then subjected to phosphate deficiency (−Pi) for another one week. On the day of root exudates collection, rice seedlings were first treated with 5 μM Zaxinone, or MZ compounds for 6 h, and then root exudates and root tissues were collected from each tube for LC-MS/MS analysis and Striga bioassays. Striga hermonthica seed germination bioassays were conducted by following the procedure as described previously. About 50-100 sterilized Striga seeds were spread on a glass fiber filter paper disc. Then 12 discs with Striga seeds were put on a sterilized filter paper, moistened with 3 ml sterilized water in a 90 mm petri plate. The plates were sealed with parafilm and cover with aluminum foil. All the plates were kept at 30° C. for 10 days for pre-conditioning. On 11th day, six dry discs with pre-conditioned seeds were selected and put in a 90 mm petri-dish. A filter paper ring moistened with 0.9 ml sterile MilliQ water was placed in the plate. The root exudates collected from Zaxinone or MZ compounds treated rice seedlings was applied at 50 μl on each six disc. Sterile MilliQ water and standard SL analog GR24 (2.5 μM) were included as a negative and positive control, respectively. After application, Striga seeds were incubated in dark at 30° C. for 24 hours. Germination (seeds with radicle emerging through seed coat) was scored under a binocular microscope, and germination rate (%) was calculated.

[2] = test system: zas mutant and Nipponbare wild-type rice seedlings; assay: Hydroponic rice growth, zas mutant rescue and tillering; assay type: in vivo; conditions: hydroponic system, 2.5 μM
Protocol: For rescuing zas mutant phenotypes and investigating the effect of the compounds MZ3 and MZ5 on different genotypes, one week-old seedlings were grown hydroponically in half-strength modified Hoagland nutrient solution containing K2HPO4.2H2O (+Pi), 2.5 μM and 5 μM zaxinone or compounds (MZ2-MZ5) (dissolved in 0.1% acetone) or the corresponding volume of the solvent (control) for 21 days (i.e. 3 weeks). The solution was changed every other day, adding the chemical at each renewal.

[3] = test system: strigolactones (4-deoxyorobanchol, orobanchol) content; assay: LC-MS/MS quantification of SLs in rice root tissues; assay type: in vivo; conditions: Pi-starved WT rice, 5 μM, 6 hours
Protocol: For SL analysis, one-week-old seedlings were transferred into 50 ml falcon tubes (two seedlings per tube), containing half-strength Hoagland nutrient solution with K2HPO4.2H2O (+Pi), and grown in the biochamber for one week. Rice seedlings were then subjected to phosphate deficiency (−Pi) for another one week. On the day of root exudates collection, rice seedlings were first treated with 5 μM Zaxinone, or MZ compounds for 6 h, and then root exudates and root tissues were collected from each tube for LC-MS/MS analysis and Striga bioassays.
For the quantification of SLs in rice root, plant tissue material was lyophilized and grinded. Approximately 20 mg root tissue spiked with 0.672 ng of D6-5-deoxystrigol was extracted with 2 ml of ethyl acetate in an ultrasound bath (Branson 3510 ultrasonic bath) for 15 min, followed by centrifugation for 8 min at 3800 rpm at 4° C. The supernatant was collected and the pellet was re-extracted with 2 ml of ethyl acetate. Then the two supernatants were combined and dried under vacuum. The residue was dissolved in 100 μl of ethyl acetate and 2 ml of hexane. The resulting extract solution was loaded on a Silica gel SPE column (500 mg/3 ml) preconditioned with 3 ml of ethyl acetate and 3 ml of hexane. […] 4-deoxyorobanchol was analyzed by using HPLC-Q-Trap-MS/MS with MRM mode. […]

[4] = Chemical stability in aqueous solution by HPLC; assay type: physicochemical; conditions: 14-day HPLC analysis, room temperature (21±1° C.), pH 5.0-6.0 aqueous solution; compared with MZ5
Protocol: MZ3, and MZ5 were tested for their chemical stability at 21±1° C. with pH 5.0-6.0 aqueous solution following the protocol described recently. 50 μl of each compound solutions (1 mg ml-1) was prepared with 175 μl ethanol and 750 μl Mili-Q water. Thereafter, 25 μl Indanol (1 mg ml-1, internal standard) was spiked in 975 μl previous prepared solution. The degradation was monitored at a time course by UPLC analysis using an Agilent HPLC ZORBAX Eclipse XDB-C18 column (3.5 μm, 4.6×150 mm), eluted first by 5% acetonitrile in water for 0.5 min then by a gradient flow from 5% to 100% acetonitrile within 18 min, and by 100% acetonitrile for 5 min. The column was operated at 40° C. at 0.35 ml min^−1 flow rate. Compounds eluted from the column were detected with a photodiode array detector, and the relative quantity of non-degraded amount was calculated by integration comparison with Indanol.
Zaxinone was tested under the same conditions for comparison. Synthetic zaxinone was purchased (customized synthesis) from Buchem B.V. (Apeldoorn, The Netherlands).

COc1ccc(Oc2cccc(/C=C/C(C)=O)c2)cc1 [MZ3, (E)-4-(3-(4-methoxyphenoxy)phenyl)but-3-en-2-one]
presence in shoots of rice plants fed through roots [1]: detected
lowering of Striga seed germinating activity of collected exudates (Striga hermonthica seeds; exudates of Pi-starved WT rice seedlings exposed to 5 μM for 6 hours (FIG. 10)): around 40%
decrease of Striga seed germination rate (Striga hermonthica seeds; exudates of rice seedlings treated with 5 μM compound, Pi starvation (FIG. 2)): ~45%
root length of wild-type plants relative to zaxinone [2]: more active than zaxinone
Oro content in roots ([3]; control 0.6): 0.1 pgmg-1dry-root-weight
4DO content in roots ([3]; control 2.5): 0.5 pgmg-1dry-root-weight
stability (relative amount of non-degraded compound) [4]: much more stable

— US20220400669A1, “COMPOUNDS AND METHODS FOR PROMOTING PLANT GROWTH” (King Abdullah University of Science and Technology, priority 2019, published 2022)
